Measurements from US10322995B2, “Substituted cyano cycloalkyl penta-2,4-dienes, cyano cycloalkyl pent-2-en-4-ynes, cyano heterocyclyl penta-2,4-dienes and cyano heterocyclyl pent-2-en-4-ynes as active substances against abiotic plant stress” (BAYER CROPSCIENCE AKTIENGESELLSCHAFT, priority 2014, dated 2019).

Tests used:
Brassica napus (BRSNS) = assay: In vivo analyses Part A: drought stress, visual damage scoring, efficacy EF (BRSNS); conditions: spray application 250 g/ha, efficacy = reduction in damage intensity
Protocol: (§1) Seeds of monocotyledonous and dicotyledonous crop plants were sown in sandy loam in wood-fibre pots, covered with soil or sand and cultivated in a greenhouse under good growth conditions. The test plants were treated at the early leaf stage (BBCH10-BBCH13). To assure uniform water supply before commencement of stress, the potted plants were supplied with water by dam irrigation prior to substance application. The inventive compounds, formulated in the form of wettable powders (WP), were sprayed onto the green parts of the plants as an aqueous suspension at an equivalent water application rate of 600 I/ha with addition of 0.2% wetting agent (e.g. agrotin). Substance application was followed immediately by stress treatment of the plants. For this purpose, the pots were transferred in plastic inserts in order to prevent them from subsequently drying out too quickly. Drought stress was induced by gradual drying out under the following conditions: “Day”: 14 hours with illumination at 26° C. “Night”: 10 hours without illumination at 18° C. The duration of the respective stress phases was guided mainly by the condition of the stressed control plants. It was ended (by re-irrigating and transfer to a greenhouse with good growth conditions) as soon as irreversible damage was observed on the stressed control plants. The end of the stress phase was followed by an about 4-7-day recovery phase, during which the plants were once again kept under good growth conditions in a greenhouse. The duration of the recovery phase was guided mainly by when the trial plants had attained a state which enabled visual scoring of potential effects, and was therefore variable. Once this juncture was reached, the intensities of damage were scored visually in comparison to untreated, unstressed controls of the same age. The damage intensity was at first assessed in percent. […]

Zea mays (ZEAMX) = assay: In vivo analyses Part A: drought stress, visual damage scoring, efficacy EF (ZEAMX); conditions: spray application 25 g/ha, efficacy = reduction in damage intensity
Protocol: Seeds of monocotyledonous and dicotyledonous crop plants were sown in sandy loam in wood-fibre pots, covered with soil or sand and cultivated in a greenhouse under good growth conditions. The test plants were treated at the early leaf stage (BBCH10-BBCH13). To assure uniform water supply before commencement of stress, the potted plants were supplied with water by dam irrigation prior to substance application. The inventive compounds, formulated in the form of wettable powders (WP), were sprayed onto the green parts of the plants as an aqueous suspension at an equivalent water application rate of 600 I/ha with addition of 0.2% wetting agent (e.g. agrotin). Substance application was followed immediately by stress treatment of the plants. For this purpose, the pots were transferred in plastic inserts in order to prevent them from subsequently drying out too quickly. Drought stress was induced by gradual drying out under the following conditions: “Day”: 14 hours with illumination at 26° C. “Night”: 10 hours without illumination at 18° C. The duration of the respective stress phases was guided mainly by the condition of the stressed control plants. […] Once this juncture was reached, the intensities of damage were scored visually in comparison to untreated, unstressed controls of the same age. The damage intensity was at first assessed in percent. […]

[1] = system: Triticum aestivum (TRZAS); assay: In vivo analyses Part A: drought stress, visual damage scoring, efficacy EF (TRZAS); conditions: spray application 25 g/ha, efficacy = reduction in damage intensity
Protocol: as §1

CCOC(=O)/C=C(/C)C#CC(O)(c1ccccc1)C1(C#N)CC1 (stereo not drawn) [I.1-236, Ethyl (2Z)-6-(1-cyanocyclopropyl)-6-hydroxy-3-methyl-6-phenylhex-2-en-4-ynoate]
>5%: EF [%] (BRSNS) (Brassica napus (BRSNS)) | EF [%] (ZEAMX) (Zea mays (ZEAMX)) | EF [%] (TRZAS) [1]
